# Test results: patent US9221900B2, “Methods for identifying safe and functional humanized antibodies” (AC IMMUNE S.A., priority 2010, dated 2015)
# Tests used:
# Aβ1-42 = assay: Aβ ELISA, binding to Aβ peptides and Aβ1-42 assembly states; parameters: species or system human; conditions: Aβ ELISA; human and murine Aβ1-42 and human Aβ1-40
# From the text: FIG. 1 provides graphs and immunohistochemical images corresponding to the experiments described in Example 6.1 and 6.2. […] As a control, an anti-Aβ IgG monoclonal antibody with a N-terminal epitope was used. […] The mean (±SEM) of two assays is shown.
# Murine anti-Aβ monoclonal antibodies were generated by immunizing mice with an Aβ peptide antigen using a liposomal vaccine formulation as previously described (Muhs et al., 2007). Several criteria were used to select candidate antibodies, including the ability to bind multiple Aβ species and to inhibit Aβ1-42 assembly into small cytotoxic peptide aggregates. A monoclonal murine mAb with an IgG2b backbone (mMABT) was selected for in vivo functionality studies using both single-transgenic murine mutant human APP and double-transgenic murine mutant human APP/PS1 models of Alzheimer's Disease. […] These ranged from monomeric and oligomeric Aβ1-42 fractions isolated by size-exclusion chromatography (SEC), mature Aβ1-42 fibers, to a more complex mixture of highly neurotoxic Aβ1-42 oligomer assemblies, ranging in size from dimers and trimers to higher molecular-weight multimers (see FIG. 8).
# APP/PS1 mice = assay: In vivo two-photon imaging of amyloid plaques; parameters: species or system mouse; conditions: systemic dosing; tracked over multiple weeks
# Method: FIG. 11 provides In vivo imaging of Aβ plaques in APP/PS1 mice treated with anti-beta amyloid antibody was performed. Systemic dosing of MABT modulates individual amyloid plaques in vivo. Amyloid plaques in APP/PS1 animals were labeled with Methoxy-X04 injected I.P., visualized by in vivo two-photon microscopy and tracked over multiple weeks (A). The relative change in plaque volume over time plotted as fold-increase from the initial imaging session (B).
# Cranial windows were implanted above the somatosensory cortex of 10-month old APP hAPP(V717I)/PS1 mice, as previously described (Trachtenberg et al 2002, Holtmaat et al 2009), 2 weeks before the initial imaging session. Twenty-four hours prior to each imaging session animals were injected with 10 mg/kg Methoxy-X04 I.P. to visualize individual amyloid plaques (Klunk et al 2002) and immediately prior to imaging injected I.V. with AngioSense680 (VisEn Medical) to visualize blood vessels. For each imaging session animals were anesthetized with an isoflurane-oxygen mixture and mounted to the microscope using a head post. Images were collected via a two-photon laser scanning microscope (Ultima in vivo; Prairie Technologies) using a Ti:sapphire laser (MaiTai DeepSee; Spectra Physics) tuned to 820 nm delivering ˜30 mW to the back-focal plane of a 40× NA 0.8 objective lens (Olympus). […]
substance,measurement,setting,value
"MABT: humanized anti-Aβ monoclonal antibody of IgG4 isotype, affinity matured and humanized form of mouse mMABT",binding to different Aβ peptides,Aβ1-42,bound with high affinity
same,individual plaque volume,APP/PS1 mice,decreased in volume
